From patent US20240016785A1 (Delta 4 GmbH, priority 2020, published 2024)

Key:
[1] = test system: Adriamycin nephropathy in Balb/c mice
Method: Adriamycin (Doxorubicin; Sigma, D1515-10 mg) was diluted in ddH2O. To induce FSGS, a dose of 10.5 mg/kg mouse was injected i.v. into the tail vein using 27G needles, i. e. a total volume of 200 μl volume per 25 g mouse.
For tail vein injection, mice were anaesthetized using Ketanest (Pfizer, 25 mg/ml vials) and Rompun (Bayer, 20 mg/ml injection solution). A final mix of 12.5 mg/ml Ketanest and 0.25% Rompun in 0.9% NaCl solution was prepared and 200 μl/25 g mouse were injected.
Female Balb/c mice were obtained from the animal breeding facility of the Medical University (Abteilung kir Labortierkunde, Himberg, Austria). 12-16 weeks old animals with a weight >20 g were used for the experiments and adjusted for weight and age. Animals were allowed acclimatization of at least 7 days. Animals were marked by ear or toe clip codes to allow identification. Adriamycin nephropathy in Balb/c mice is the most commonly used animal model for preclinical FSGS studies and shares the central features with human FSGS.
Standard commercial chow from ssniff (ssniff Spezialdiaten GmbH, Soest, Germany) contained crude protein (19%), crude fat (3.3%), crude fiber (4.9%), crude ash (6.4%), starch (36.5%), sugar (4.7%). […] All animals were allowed to eat ad libitum assuming a daily average uptake of ˜4 grams/mouse (according to animal care guideline of the Johns Hopkins University,
Spot urine was collected every week and Creatinine and protein levels were measured.
Urinary albumin was measured by ELISA. 96-well plates were coated over night at 4° C. with 100 μl antibody solution Anti Mouse Serum Albumin antibody (Abcam ab34807, Lot GR3242102-4; diluted 1:2,000) in coating buffer (3.7 g NaHCO3; 0,64 g Na2CO3; 1L distilled water). The remaining procedure was performed at room temperature. Wells were washed 3× with HBSS (Sigma H8264-500 ML) +0,05% Tween-20 (Bio-Rad, #1706531) and blocked in ELISA/ELISPOT Diluent (eBioscience, 00-4202-56) and washed again for 3×. Samples and standard curve were both diluted in ELISA/ELISPOT diluent were incubated for 2 h, followed by 3 wash steps with HBSS+0,05% Tween-20, incubated with HRP antibody Anti Mouse Serum Albumin antibody (Abcam ab19195, Lot GR3242102-4; diluted 1:100,000) for 1 h, followed by 5 wash steps. Reaction was developed with TMB One Solution (Promega, G7431) and stopped with 2N H2SO4. Standard curves were generated with Mouse Albumin (Merck/Sigma, 126674-25MG). 450 nm absorbance was measured on an Epoch Microplate reader (BioTek) using GenS 1.10 software.
At the end of the experiment kidneys were removed, embedded in paraffin and PAS (Periodic acid-Schiff) staining was performed. Histology was thoroughly evaluated and the amount of sclerotic glomeruli and protein casts was quantified.
R version 4.0.2 was used for statistical analysis. Student's t-test was used for comparing UPCR and UACR values between samples from treated and control mice for each individual time point and to assess differences in histological parameters. Repeated measures ANOVA was performed to analyse the drug's impact on UPCR and UACR over time using the respective functions in the rstatix package (V0.6.0). ggplot2 (V3.3.2) and ggpubr (V0.4.0) packages were used for generating the graphical visualizations.
In two independent experiments (Experiment 1 and 2), 34 female Balb/c mice were injected with 10.5 mg/kg adriamycin into the tail vein (see table 2). […] Spot urine was collected weekly, kidneys were harvested at sacrifice. 10.5 mg/kg Adriamycin were injected into the tail vein. […] Urine was collected and weight was measured weekly. The experiments lasted about 5 weeks.

[2] = test system: adriamycin induced nephropathy in BALB/c mice
Method: Control mice were injected with 0.9% saline. At least 6 mice were analyzed per group. Mice were monitored daily for signs of pain, altered movement, or reduced food uptake and sacrificed by cervical dislocation. Tested drugs were administered per oral administration via pre-mixed chow at drug doses based on literature research.
Urinary albumin levels were assessed by ELISA, urinary total protein and urinary creatinine levels were measured on the Roche Cobas system, using routine laboratory kits. Urinary protein/creatinine (UPCR) ratio and urinary albumin/creatinine ratio (UACR) were assessed at different time points. Weight and physical fitness scores were monitored on a daily basis. At the end of the experiment, tissue sections, plasma and urine samples were collected and stored until further analysis.
Repeated measures ANOVA across timepoints was calculated using the R statistical software framework.

[3] = test system: podocytes of animals with adriamycin induced nephropathy; conditions: animals treated with clopidogrel as in Example 2, vs untreated adriamycin nephropathy animals

COC(=O)[C@H](c1ccccc1Cl)N1CCc2sccc2C1 [Clopidogrel, (S)-Methyl-(2-chlorphenyl)-2-(6,7-dihydro-4H-thieno[3,2-c]pyridin-5-yl)acetate]
glomerular sclerosis index (sclerotic glomeruli of all glomeruli), highest reached in any sample ([1]; PAS staining, untreated control group went up to 35%): ≤ 4%
reduction of UPCR (urinary protein to creatinine ratio) ([1]; both experiments together, average across all time points, chow + 200 mg/kg Clopidogrel (~25-30 mg/kg mouse/day) from 48 h after adriamycin 10.5 mg/kg i.v., vs control mice): 49%
reduction of UACR (urinary albumin to creatinine ratio) ([1]; both experiments together, average across all time points, chow + 200 mg/kg Clopidogrel, vs control mice): 61%
average histopathological damage score ([1]; clopidogrel-treated group, control average 2.67, p=0.038): 0.86
severe disease (glomerular sclerosis) ([1]; histopathology, FIG. 8A, B): completely prevented severe disease
reduction of ADR-associated weight loss ([1]; overall, both experiments, weight measured weekly, vs control mice): 48%
tubular ectasia, determined by protein cylinders in PAS staining ([1]; vs control group, FIG. 8C): strongly ameliorated
weight loss compared to control mice ([1]; weekly over the course of the experiments): less weight loss
UPCR at 37 days after start, compared with Ctrl mice ([2]; FIG. 1, mice could recover from Adriamycin induced FSGS in this experiment): reduced to similar levels
effect of drug administration on UPCR, repeated measures ANOVA across timepoints ([2]; adriamycin approx. 9 mg/kg, drug via pre-mixed chow, p=0.009 (drug)): significant
podocyte injury (podocytopathy) by electron microscopy [3]: significantly reduced podocyte injury
